Results: the NIST ThermoML archive (doi:10.1016/j.jct.2011.01.008)

Columns and labels:
[1] = xn = mol fraction of the nth substance listed; conditions: 96 kPa, Liquid, Vibrating tube method
[2] = refractive index (Na D-line) (dimensionless); xn = mol fraction of the nth substance listed; conditions: 298.15 K, 96 kPa, Liquid, Standard Abbe refractometry

CCCCC=O [pentanal] + CCOS(=O)(=O)[O-].CCn1cc[n+](C)c1
[1]
Conditions	mass density [kg/m3]
288.15 K, x1 = 0.0792	1218.05
288.15 K, x1 = 0.101	1213.67
288.15 K, x1 = 0.3008	1168.57
288.15 K, x1 = 0.4074	1139.93
288.15 K, x1 = 0.6047	1073.97
288.15 K, x1 = 0.7012	1036.82
288.15 K, x1 = 0.897	935.22
288.15 K, x1 = 0.9513	896.87
288.15 K, x1 = 1	814.15
288.16 K, x1 = 0.2039	1191.69
288.16 K, x1 = 0.5048	1109.32
288.16 K, x1 = 0.8024	990.74
293.14 K, x1 = 0.0792	1215
293.14 K, x1 = 1	809.45
293.15 K, x1 = 0.101	1210.75
293.15 K, x1 = 0.2039	1188.69
293.15 K, x1 = 0.3008	1165.47
293.15 K, x1 = 0.4074	1136.9
293.15 K, x1 = 0.5048	1106.25
293.15 K, x1 = 0.6047	1070.53
293.15 K, x1 = 0.7012	1033.26
293.15 K, x1 = 0.8024	986.74
293.15 K, x1 = 0.897	931.08
293.15 K, x1 = 0.9513	892.5
298.14 K, x1 = 0.0792	1211.93
298.14 K, x1 = 0.101	1207.59
298.14 K, x1 = 0.2039	1185.49
298.14 K, x1 = 0.3008	1162.15
298.14 K, x1 = 0.4074	1133.5
298.14 K, x1 = 0.5048	1102.7
298.14 K, x1 = 0.6047	1066.69
298.14 K, x1 = 0.7012	1029.35
298.14 K, x1 = 0.8024	982.52
298.14 K, x1 = 0.897	926.62
298.14 K, x1 = 0.9513	887.82
298.14 K, x1 = 1	804.73
303.14 K, x1 = 0.101	1204.47
303.14 K, x1 = 0.2039	1182.28
303.14 K, x1 = 0.3008	1158.83
303.14 K, x1 = 0.4074	1130.07
303.14 K, x1 = 0.5048	1099.13
303.14 K, x1 = 0.6047	1062.78
303.14 K, x1 = 0.7012	1025.33
303.14 K, x1 = 0.8024	978.11
303.14 K, x1 = 0.897	921.84
303.14 K, x1 = 0.9513	882.85
303.15 K, x1 = 0.0792	1208.72
303.15 K, x1 = 1	799.97
308.14 K, x1 = 0.101	1201.4
308.14 K, x1 = 0.2039	1179.03
308.14 K, x1 = 0.4074	1126.55
308.14 K, x1 = 0.5048	1095.35
308.14 K, x1 = 0.6047	1058.77
308.14 K, x1 = 0.7012	1021.17
308.14 K, x1 = 0.897	916.87
308.14 K, x1 = 0.9513	877.74
308.15 K, x1 = 0.0792	1205.39
308.15 K, x1 = 0.3008	1155.36
308.15 K, x1 = 0.8024	973.48
308.15 K, x1 = 1	795.17
313.14 K, x1 = 0.0792	1201.93
313.14 K, x1 = 0.2039	1175.7
313.14 K, x1 = 0.4074	1122.78
313.14 K, x1 = 0.5048	1091.33
313.14 K, x1 = 0.6047	1054.63
313.14 K, x1 = 0.7012	1016.96
313.14 K, x1 = 0.897	911.86
313.14 K, x1 = 0.9513	872.76
313.14 K, x1 = 1	790.33
313.15 K, x1 = 0.101	1198.11
313.15 K, x1 = 0.3008	1151.83
313.15 K, x1 = 0.8024	966.65
318.14 K, x1 = 0.0792	1198.39
318.14 K, x1 = 0.2039	1172.28
318.14 K, x1 = 0.5048	1087.33
318.14 K, x1 = 0.6047	1050.4
318.14 K, x1 = 0.7012	1012.64
318.14 K, x1 = 0.8024	962.44
318.14 K, x1 = 0.897	906.82
318.14 K, x1 = 0.9513	867.68
318.14 K, x1 = 1	785.46
318.15 K, x1 = 0.101	1194.8
318.15 K, x1 = 0.3008	1148.23
318.15 K, x1 = 0.4074	1119.06
323.14 K, x1 = 0.0792	1195.73
323.14 K, x1 = 0.2039	1168.79
323.14 K, x1 = 0.5048	1083.27
323.14 K, x1 = 0.6047	1046.09
323.14 K, x1 = 0.8024	959.29
323.14 K, x1 = 0.9513	862.54
323.14 K, x1 = 1	780.55
323.15 K, x1 = 0.101	1191.43
323.15 K, x1 = 0.3008	1144.59
323.15 K, x1 = 0.4074	1115.15
323.15 K, x1 = 0.7012	1008.39
323.15 K, x1 = 0.897	901.88

[2]
Conditions	refractive index
x1 = 0.0792	1.4793
x1 = 0.101	1.4788
x1 = 0.2039	1.4759
x1 = 0.3008	1.4718
x1 = 0.4074	1.4672
x1 = 0.5048	1.4621
x1 = 0.6047	1.4554
x1 = 0.7012	1.4486
x1 = 0.8024	1.4403
x1 = 0.897	1.431
x1 = 0.9513	1.4231
x1 = 1	1.396

CCC=O [propanal] + CCOS(=O)(=O)[O-].CCn1cc[n+](C)c1
[1]
Conditions	mass density [kg/m3]
288.14 K, x1 = 0.1702	1215.95
288.14 K, x1 = 0.4184	1170.49
288.14 K, x1 = 1	807.26
288.15 K, x1 = 0.2146	1209
288.15 K, x1 = 0.3671	1182.78
288.15 K, x1 = 0.5246	1139.5
288.15 K, x1 = 0.616	1108.79
288.15 K, x1 = 0.7074	1069.7
288.15 K, x1 = 0.8104	1012.95
288.15 K, x1 = 0.9022	936.46
288.15 K, x1 = 0.9521	876.3
288.16 K, x1 = 0.077	1227.88
293.15 K, x1 = 0.077	1224.4
293.15 K, x1 = 0.1702	1212.43
293.15 K, x1 = 0.5246	1136.2
293.15 K, x1 = 0.616	1105.04
293.15 K, x1 = 0.7074	1066.43
293.15 K, x1 = 1	801.06
293.16 K, x1 = 0.2146	1205.39
293.16 K, x1 = 0.3671	1178.94
293.16 K, x1 = 0.4184	1166.66
293.16 K, x1 = 0.8104	1008.26
293.16 K, x1 = 0.9022	931.16
293.16 K, x1 = 0.9521	870.71
298.15 K, x1 = 0.1702	1208.92
298.15 K, x1 = 0.5246	1132.3
298.15 K, x1 = 0.616	1101.02
298.15 K, x1 = 1	794.85
298.16 K, x1 = 0.077	1220.94
298.16 K, x1 = 0.2146	1201.81
298.16 K, x1 = 0.3671	1175.21
298.16 K, x1 = 0.4184	1162.88
298.16 K, x1 = 0.7074	1062.18
298.16 K, x1 = 0.8104	1003.73
298.16 K, x1 = 0.9022	925.91
298.16 K, x1 = 0.9521	865.19
303.15 K, x1 = 0.077	1217.48
303.15 K, x1 = 0.5246	1128.46
303.15 K, x1 = 0.7074	1058.06
303.15 K, x1 = 1	788.72
303.16 K, x1 = 0.1702	1205.39
303.16 K, x1 = 0.2146	1198.24
303.16 K, x1 = 0.3671	1171.5
303.16 K, x1 = 0.4184	1159.08
303.16 K, x1 = 0.616	1097.06
303.16 K, x1 = 0.8104	999.38
303.16 K, x1 = 0.9022	920.77
303.16 K, x1 = 0.9521	859.8
308.15 K, x1 = 0.077	1214.04
308.15 K, x1 = 0.2146	1194.69
308.15 K, x1 = 0.3671	1167.83
308.15 K, x1 = 0.4184	1155.38
308.15 K, x1 = 0.8104	995.49
308.15 K, x1 = 0.9022	915.5
308.15 K, x1 = 0.9521	854.41
308.16 K, x1 = 0.1702	1201.91
308.16 K, x1 = 0.5246	1124.75
308.16 K, x1 = 0.616	1093.39
308.16 K, x1 = 0.7074	1054.45
308.16 K, x1 = 1	782.55
313.14 K, x1 = 0.1702	1198.61
313.14 K, x1 = 0.616	1089.32
313.14 K, x1 = 0.7074	1050.7
313.15 K, x1 = 0.077	1210.68
313.15 K, x1 = 0.3671	1164.21
313.15 K, x1 = 0.4184	1151.8
313.15 K, x1 = 0.5246	1121.2
313.15 K, x1 = 0.8104	990.4
313.15 K, x1 = 0.9022	910.11
313.15 K, x1 = 0.9521	848.67
313.15 K, x1 = 1	776.53
313.16 K, x1 = 0.2146	1191.34

[2]
Conditions	refractive index
x1 = 0.077	1.4789
x1 = 0.1702	1.4768
x1 = 0.2146	1.473
x1 = 0.3671	1.4641
x1 = 0.4184	1.4627
x1 = 0.5246	1.4532
x1 = 0.616	1.4467
x1 = 0.7074	1.4369
x1 = 0.8104	1.426
x1 = 0.9022	1.41
x1 = 0.9521	1.3854
x1 = 1	1.3648
